Test [1] deals with SGLT2 (Homo sapiens (Human), UniProt P31639). Description: SGLT2 activity measurement: [14C] methyl α-D-glucopyranoside uptake in SGLT2 instantaneous transfer strain. It is filed as cell-based. To be noted: SGLT2 transfected cells, 96-well plate, 15 min preincubation, 2 hours with [14C] methyl α-D-glucopyranoside at 37° C.
Experimental: (§1) Then each well of the 96-well plate was washed with 200 μL sodium-free buffer twice and 90 μL sodium-containing buffer solution containing test compounds having different concentrations was added, each of the test compounds having its corresponding concentration repeated in three wells. The compounds were incubated at 37° C. for 15 minutes and then each well of the 96-well plate was incubated with [14C] Methyl α-D-glucopyranoside (10 μL, totally 0.1 μCi) for another 2 hours at 37° C. Thereafter, supernatant was removed; the cell pellet was washed twice with precooling no-sodium buffer and lysed in 200 mM NaOH (100 μL). 100 μL scintillation fluid was added and mixed and 14C was quantitatively detected using liquid scintillation.
(§2) The IC50 values of the compounds can be calculated using the aggregation rate at different concentrations.
Test [2] addresses SGLT1 (Homo sapiens (Human), UniProt P13866). Description: SGLT1 activity measurement: [14C] methyl α-D-glucopyranoside uptake in SGLT1 instantaneous transfer strain. In kind it is cell-based. The following applies: SGLT1 transfected cells, 96-well plate, 15 min preincubation, 2 hours with [14C] methyl α-D-glucopyranoside at 37° C.
Experimental: as §1, §2
In test [3] the test system is glucose-load mice. Nature of the test: Preliminary evaluation of the hypoglycemic effect in glucose-load mice. It is filed as in vivo. To be noted: ICR mice, dose 1 mg/kg, 20% glucose solution 4 g/kg given 15 minutes after administering, blood glucose at minute 0, 15, 30, 45, 60, 120. Here is the method:
The purpose was to observe the effect of the test compounds on blood glucose levels of glucose-load mice. Determination and analysis of sugar content in the blood collected from the mouse tail was determined at different times within 2 hours of administration to provide preliminary evaluation of the hypoglycemic activity in vivo.
The experimental animals used were 24 healthy ICR mice (weighing 20-24 g), 12 female and 12 male, purchased from Shanghai Super—B&K laboratory animal Corp. Ltd., animal production license number: SCXK (Shanghai) 2008-0016.
To prepare the drug, a certain amount of compounds were weighed and dissolved in water (pure water OWN) and formulated into an aqueous solution of 0.1 mg/mL (5% DMSO for solubilization).
The administered dose was 1 mg/kg, blank and water groups (containing 5% DMSO).
20% glucose solution (4 g/kg, 0.8 mL each mouse) was given after 15 minutes of administration.
Administering in dose and measuring the blood glucose value (−15 minutes).

Sequence of SGLT2 (P31639 whole entry, species assumed): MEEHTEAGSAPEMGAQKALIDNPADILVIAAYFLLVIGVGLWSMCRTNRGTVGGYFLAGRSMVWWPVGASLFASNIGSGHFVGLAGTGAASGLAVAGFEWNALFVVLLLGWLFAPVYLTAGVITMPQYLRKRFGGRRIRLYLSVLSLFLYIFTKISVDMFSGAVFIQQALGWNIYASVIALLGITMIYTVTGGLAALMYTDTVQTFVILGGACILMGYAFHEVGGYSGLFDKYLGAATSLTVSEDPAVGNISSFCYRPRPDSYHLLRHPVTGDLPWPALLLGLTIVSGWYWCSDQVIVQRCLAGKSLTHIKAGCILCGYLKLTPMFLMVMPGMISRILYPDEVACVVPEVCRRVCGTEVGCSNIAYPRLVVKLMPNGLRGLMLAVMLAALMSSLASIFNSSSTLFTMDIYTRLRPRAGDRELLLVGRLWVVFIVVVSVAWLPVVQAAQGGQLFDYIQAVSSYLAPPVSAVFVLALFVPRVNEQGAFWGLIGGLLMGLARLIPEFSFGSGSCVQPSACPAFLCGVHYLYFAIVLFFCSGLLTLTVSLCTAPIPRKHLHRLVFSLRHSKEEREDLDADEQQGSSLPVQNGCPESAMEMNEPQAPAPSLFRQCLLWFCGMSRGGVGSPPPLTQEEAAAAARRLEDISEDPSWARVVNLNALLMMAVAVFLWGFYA
Sequence of SGLT1 (P13866 whole entry, species assumed): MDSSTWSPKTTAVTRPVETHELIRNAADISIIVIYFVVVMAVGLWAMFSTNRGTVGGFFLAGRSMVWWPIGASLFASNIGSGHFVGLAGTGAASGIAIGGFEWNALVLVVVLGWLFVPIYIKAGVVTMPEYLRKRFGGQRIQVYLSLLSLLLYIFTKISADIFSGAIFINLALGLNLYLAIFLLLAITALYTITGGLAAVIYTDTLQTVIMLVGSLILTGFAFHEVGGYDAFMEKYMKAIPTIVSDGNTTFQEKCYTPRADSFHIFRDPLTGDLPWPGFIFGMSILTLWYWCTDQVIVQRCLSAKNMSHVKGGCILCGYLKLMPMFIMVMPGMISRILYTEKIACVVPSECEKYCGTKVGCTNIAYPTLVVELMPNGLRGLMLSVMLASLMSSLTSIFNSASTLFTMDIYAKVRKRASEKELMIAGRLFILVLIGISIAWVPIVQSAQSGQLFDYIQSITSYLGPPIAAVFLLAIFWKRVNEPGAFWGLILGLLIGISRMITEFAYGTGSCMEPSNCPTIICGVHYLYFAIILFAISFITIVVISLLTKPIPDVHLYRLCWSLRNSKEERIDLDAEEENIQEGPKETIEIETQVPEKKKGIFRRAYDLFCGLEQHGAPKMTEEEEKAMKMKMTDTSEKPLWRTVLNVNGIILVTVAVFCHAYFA

Turning to `[2H]C([2H])([2H])C([2H])([2H])Oc1ccc(Cc2cc(C34OCC(CO)(O3)[C@@H](O)[C@H](O)[C@H]4O)ccc2Cl)cc1F` (stereo in doubt) [Example 10, (1S,2S,3S,4R,5S)-5-[4-chloro-3-[[3-fluoro-4-(1,1,2,2,2-pentadeuterioethoxy)phenyl]methyl]phenyl]-1-(hydroxymethyl)-6,8-dioxabicyclo[3.2.1]octane-2,3,4-triol], the figures for the IC50 in test [1] and in test [2] were 3.31 nM and 1220 nM, respectively.

In the case of `[2H]C([2H])([2H])Oc1ccc(Cc2cc(C34OCC(CO)(O3)[C@@H](O)[C@H](O)[C@H]4O)ccc2Cl)cc1F` (stereo in doubt) [Example 8, (1S,2S,3S,4R,5S)-5-[4-chloro-3-[[3-fluoro-4-(trideuteriomethoxy)phenyl]methyl]phenyl]-1-(hydroxymethyl)-6,8-dioxabicyclo[3.2.1]octane-2,3,4-triol], the IC50 (usually the midpoint of a concentration-inhibition curve) came to 1.42 nM in test [1] and 600 nM in test [2]. Further, the “AUC decline rate %” value in test [3] amounted to 20.49%. In the case of `[2H]C([2H])(c1ccc(OCC)c(F)c1)c1cc(C23OCC(CO)(O2)[C@@H](O)[C@H](O)[C@H]3O)ccc1Cl` (stereo in doubt) [Example 11, (1S,2S,3S,4R,5S)-5-[4-chloro-3-[dideuterio-(4-ethoxy-3-fluoro-phenyl)methyl]phenyl]-1-(hydroxymethyl)-6,8-dioxabicyclo[3.2.1]octane-2,3,4-triol], the IC50 worked out at 6.35 nM in test [1] and 3550 nM in test [2]. As to `Cc1ccc(C23OCC(CO)(O2)C(O)C(O)C3O)cc1Cc1ccc(-c2ccc(F)cc2)s1` (single isomer, unassigned) [Example 9], the half-maximal inhibitory concentration (IC50) came out at 9.28 nM in test [1] and 1260 nM in test [2]. On to `OCC12COC(c3ccc(Cl)c(Cc4ccc(OCC(F)(F)F)cc4)c3)(O1)[C@H](O)[C@@H](O)[C@@H]2O` (stereo in doubt) [Example 7, (1S,2S,3S,4R,5S)-5-[4-chloro-3-[[4-(2,2,2-trifluoroethoxy)phenyl]methyl]phenyl]-1-(hydroxymethyl)-6,8-dioxabicyclo[3.2.1]octane-2,3,4-triol], for which the “AUC decline rate %” value in test [3] was determined as 10.75%. As for `OCC12COC(c3ccc(Cl)c(Cc4ccc(OCCOC5CC5)cc4)c3)(O1)[C@H](O)[C@@H](O)[C@@H]2O` (stereo in doubt) [Example 1, (1S,2S,3S,4R,5S)-5-[4-chloro-3-[[4-[2-(cyclopropoxy)ethoxy]phenyl]methyl]phenyl]-1-(hydroxymethyl)-6,8-dioxabicyclo[3.2.1]octane-2,3,4-triol], the results for the IC50 in test [1] and in test [2] were 9.53 nM and more than 2000 nM, respectively. In addition, the “AUC decline rate %” value in test [3] amounted to 10.04%. With `CCOc1ccc(Cc2cc(C34OCC(CO)(O3)C(O)C(O)C4O)ccc2Cl)cc1F` (single isomer, unassigned) [Example 4], it took 6.92 nM to reach half-maximal inhibition in test [1] (IC50). In other words, the single-digit nanomolar range.

In turn, `CCOc1ccc(Cc2cc(C34OCC(CO)(O3)C(O)C(O)C4O)ccc2Cl)c(F)c1F` (single isomer, unassigned) [Example 3] displayed a concentration for half-maximal inhibition (IC50) in test [1] of 8.08 nM. The IC50 values of the last two molecules are within 1.5-fold of each other. For `OCC12COC(c3ccc(Cl)c(Cc4ccc5c(c4)CCO5)c3)(O1)[C@H](O)[C@@H](O)[C@@H]2O` (stereo in doubt) [Example 5, (1S,2S,3S,4R,5S)-5-[4-chloro-3-(2,3-dihydrobenzofuran-5-ylmethyl)phenyl]-1-(hydroxymethyl)-6,8-dioxabicyclo[3.2.1]octane-2,3,4-triol], the “AUC decline rate %” value in test [3] was 14.13%. In test [2], `OCC12COC(c3ccc(Cl)c(Cc4ccc5c(c4)CCO5)c3)(O1)C(O)C(O)C2O` (single isomer, unassigned) [Example 5] returned a half-maximal inhibitory concentration (IC50) of 2520 nM. Regarding `CCOc1ccc(Cc2cc(C34OCC(CO)(O3)[C@@H](O)[C@H](O)[C@H]4O)ccc2Cl)cc1F` (stereo in doubt) [Example 4, (1S,2S,3S,4R,5S)-5-[4-chloro-3-[(4-ethoxy-3-fluoro-phenyl)methyl]phenyl]-1-(hydroxymethyl)-6,8-dioxabicyclo[3.2.1]octane-2,3,4-triol], the “AUC decline rate %” value in test [3] was found to be 15.88%. On to `OCC12COC(c3ccc(Cl)c(Cc4ccc(OC(F)(F)F)cc4)c3)(O1)[C@H](O)[C@@H](O)[C@@H]2O` (stereo in doubt) [Example 6, (1S,2S,3S,4R,5S)-5-[4-chloro-3-[[4-(trifluoromethoxy)phenyl]methyl]phenyl]-1-(hydroxymethyl)-6,8-dioxabicyclo[3.2.1]octane-2,3,4-triol], for which the “AUC decline rate %” value in test [3] is 10.15%. Turning to `OCC12COC(c3ccc(Cl)c(Cc4ccc(OCC(F)(F)F)cc4)c3)(O1)C(O)C(O)C2O` (single isomer, unassigned) [Example 7], the IC50 in test [1] was 4.58 nM; in test [2], 14300 nM.

Take `COc1ccc(Cc2cc(C34OCC(CO)(O3)[C@@H](O)[C@H](O)[C@H]4O)ccc2Cl)c(F)c1F` (stereo in doubt) [Example 2, (1S,2S,3S,4R,5S)-5-[4-chloro-3-[(2,3-difluoro-4-methoxy-phenyl)methyl]phenyl]-1-(hydroxymethyl)-6,8-dioxabicyclo[3.2.1]octane-2,3,4-triol]: the figures for the 50% inhibitory concentration (IC50) in test [1] and in test [2] were 3.65 nM and more than 2000 nM, respectively. Besides, the “AUC decline rate %” value in test [3] stood at 12.95%.

Source of the values: patent US8609622B2, “C-aryl glucoside derivatives, preparation process and pharmaceutical use thereof” (Shanghai Hengrui Pharmaceutical Co., Ltd., priority 2010, dated 2013).
